“And” between values parts separate entries of the source, which are not always exact repeats. Identical values can stand only once.
Legend:
DLD-1 cells = assay: Crizotinib synergistic effect with BRAFi in colorectal cells (FIG. 9); type: cell-based, human
From the text: The DLD-1 cells do harbor the BRAF activating mutation V600E but are not sensitive at all to BRAF inhibition. They actually grow faster under BRAFi.

[1] = test system: V600E BRAF melanoma cell lines; assay: HGF-induced / stromal resistance of melanoma cell lines to BRAF, MEK and AKT inhibitors and its reversal; type: cell-based, human; conditions: V600E BRAF melanoma cell lines with recombinant HGF
[2] = test system: BRAF V600E melanoma patients; assay: Clinical response of BRAF V600E melanoma patients to BRAFi or BRAFi + MEKi (Table 7); type: in vivo, human; conditions: one line per patient
[3] = test system: six V600E BRAF melanoma cell lines; assay: Screening of recombinant RTK ligands for ability to confer resistance to BRAFi (PLX4720) or MEKi (PD184352) (Table 4); type: cell-based, human; parameters: ability of recombinant RTK ligand to confer resistance / ability of recombinant RTK ligand to confer resistance (screening value): scale not given here
Method in brief: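 Six V600E BRAF melanoma lines treated with PLX4720 or PD184352 after addition of 22 recombinant RTK ligands, scored for drug resistance. Activation of selected RTKs confirmed by western blotting and high-throughput tyrosine kinase phosphorylation profiling.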

pERK/pAKT = assay: High-throughput western analysis of pERK/pAKT re-activation by RTK ligands under BRAFi/MEKi; type: cell-based, human; conditions: under BRAFi (PLX4720); after 1 hour of cytokine treatment; six V600E BRAF melanoma cell lines
Description: FIG. 23B is a western blot showing the activation of AKT (phosphorylated AKT, S473) after 1 hour and 24 hours after treatment with HGF, IGF-1 (IGF), and Insulin (INS) in the presence of BRAFi (PLX4720, 2 μM). FIG. 23C is a western blot showing the effect of HGF (25 ng/mL) on MAPK and PI3K/AKT pathway activation (pRAF1, pMEK, pERK, pAKT and pMET) in melanoma cell lines after 24 hours of treatment with 2 μM BRAFi (PLX4720) or 2 μM MEKi (PD184352).
To understand why, of all the RTKs tested, only HGF could induce such a unique primary resistance phenotype, a high-throughput western analysis was used to test the ability of all 22 RTK ligands to re-activate pERK/pAKT under BRAFi (PLX4720) treatment in six V600E BRAF melanoma cell lines. […] However, whereas the activation of both ERK and AKT by HGF under PLX4720 treatment was long lasting, the activation of either ERK or AKT by the above cytokines was only transient and thus could not confer resistance to the melanoma cell lines.

Compound: C[C@@H](Oc1cc(-c2cnn(C3CCNCC3)c2)cnc1N)c1c(Cl)ccc(F)c1Cl [Crizotinib]
- synergistic effect of Crizotinib (DLD-1 cells; DLD-1 cells, FIG. 9B): no substantial synergistic effect
- sensitivity of colorectal cancer cell line to BRAFi on addition of Crizotinib (DLD-1 cells; cell line printed as DLD-1, BRAF V600E): restores full sensitivity
- reversal of HGF-conferred BRAF/MEK inhibitor resistance [1]: directly reversed

Compound: CC(C)(C)c1nc(-c2cccc(NS(=O)(=O)c3c(F)cccc3F)c2F)c(-c2ccnc(N)n2)s1 [GSK2118436]
- Response (Max) [2]: 9% and 40%
- Time to progression (months) [2]: 3.5 months and 2.5 months

Compound: CCCS(=O)(=O)Nc1ccc(F)c(C(=O)c2c[nH]c3ncc(-c4ccc(Cl)cc4)cc23)c1F [Vemurafenib]
- Response (Max) [2]: 90% and 72% (2×) and 50% and 100% and 25% and 23% and 22% and 10% and 0% (4×) and 54% and 34% and 20% and 56% and 27%
- Response (Max), category [2]: POD
- Time to progression (months) [2]: 7 months and 3.2 months and 5 months (2×) and 3 months and 12.4 months and 8 months and 5.4 months and 4.5 months and 8.5 months and 6.0 months and 7.3 months and 3.5 months and 6.5 months and 1.3 months

Compound: EGF: RTK ligand (EGFR), cytokine tested
- ability of recombinant RTK ligand to confer resistance ([3]; A2058, PD184352 - 1 uM, ligand 0.4 ng/ml): 1.05
- ability of recombinant RTK ligand to confer resistance ([3]; A2058, PD184352 - 1 uM, ligand 1.6 ng/ml): 1.04
- ability of recombinant RTK ligand to confer resistance ([3]; A2058, PD184352 - 1 uM, ligand 6.25 ng/ml): 0.95
- ability of recombinant RTK ligand to confer resistance ([3]; A2058, PD184352 - 1 uM, ligand 25 ng/ml): 0.96
- ability of recombinant RTK ligand to confer resistance ([3]; A2058, PD184352 - 1 uM, ligand 100 ng/ml): 1.00
- ability of recombinant RTK ligand to confer resistance ([3]; A2058, PLX4720 - 2 uM, ligand 0.4 ng/ml): 1.02
- ability of recombinant RTK ligand to confer resistance ([3]; A2058, PLX4720 - 2 uM, ligand 1.6 ng/ml): 1.03
- ability of recombinant RTK ligand to confer resistance ([3]; A2058, PLX4720 - 2 uM, ligand 6.25 ng/ml): 0.93
- ability of recombinant RTK ligand to confer resistance ([3]; A2058, PLX4720 - 2 uM, ligand 25 ng/ml): 0.97
- ability of recombinant RTK ligand to confer resistance ([3]; A2058, PLX4720 - 2 uM, ligand 100 ng/ml): 0.99
- ability of recombinant RTK ligand to confer resistance ([3]; C32, PD184352 - 1 uM, ligand 0.4 ng/ml): 1.01
- ability of recombinant RTK ligand to confer resistance ([3]; C32, PD184352 - 1 uM, ligand 1.6 ng/ml): 0.97
- ability of recombinant RTK ligand to confer resistance ([3]; C32, PD184352 - 1 uM, ligand 6.25 ng/ml): 1.06
- ability of recombinant RTK ligand to confer resistance ([3]; C32, PD184352 - 1 uM, ligand 25 ng/ml): 1.01
- ability of recombinant RTK ligand to confer resistance ([3]; C32, PD184352 - 1 uM, ligand 100 ng/ml): 0.99
- ability of recombinant RTK ligand to confer resistance ([3]; C32, PLX4720 - 2 uM, ligand 0.4 ng/ml): 1.06
- ability of recombinant RTK ligand to confer resistance ([3]; C32, PLX4720 - 2 uM, ligand 1.6 ng/ml): 0.94
- ability of recombinant RTK ligand to confer resistance ([3]; C32, PLX4720 - 2 uM, ligand 6.25 ng/ml): 1.03
- ability of recombinant RTK ligand to confer resistance ([3]; C32, PLX4720 - 2 uM, ligand 25 ng/ml): 0.93
- ability of recombinant RTK ligand to confer resistance ([3]; C32, PLX4720 - 2 uM, ligand 100 ng/ml): 0.99
- ability of recombinant RTK ligand to confer resistance ([3]; Colo 829, PD184352 - 1 uM, ligand 0.4 ng/ml): 0.97
- ability of recombinant RTK ligand to confer resistance ([3]; Colo 829, PD184352 - 1 uM, ligand 1.6 ng/ml): 0.96
- ability of recombinant RTK ligand to confer resistance ([3]; Colo 829, PD184352 - 1 uM, ligand 6.25 ng/ml): 0.99
- ability of recombinant RTK ligand to confer resistance ([3]; Colo 829, PD184352 - 1 uM, ligand 25 ng/ml): 0.94
- ability of recombinant RTK ligand to confer resistance ([3]; Colo 829, PD184352 - 1 uM, ligand 100 ng/ml): 1.00
- ability of recombinant RTK ligand to confer resistance ([3]; Colo 829, PLX4720 - 2 uM, ligand 0.4 ng/ml): 1.02
- ability of recombinant RTK ligand to confer resistance ([3]; Colo 829, PLX4720 - 2 uM, ligand 1.6 ng/ml): 1.00
- ability of recombinant RTK ligand to confer resistance ([3]; Colo 829, PLX4720 - 2 uM, ligand 6.25 ng/ml): 1.00
- ability of recombinant RTK ligand to confer resistance ([3]; Colo 829, PLX4720 - 2 uM, ligand 25 ng/ml): 0.97
- ability of recombinant RTK ligand to confer resistance ([3]; Colo 829, PLX4720 - 2 uM, ligand 100 ng/ml): 1.01
- ability of recombinant RTK ligand to confer resistance ([3]; G-361, PD184352 - 1 uM, ligand 0.4 ng/ml): 1.01
- ability of recombinant RTK ligand to confer resistance ([3]; G-361, PD184352 - 1 uM, ligand 1.6 ng/ml): 0.90
- ability of recombinant RTK ligand to confer resistance ([3]; G-361, PD184352 - 1 uM, ligand 6.25 ng/ml): 0.97
- ability of recombinant RTK ligand to confer resistance ([3]; G-361, PD184352 - 1 uM, ligand 25 ng/ml): 1.00
- ability of recombinant RTK ligand to confer resistance ([3]; G-361, PD184352 - 1 uM, ligand 100 ng/ml): 0.96
- ability of recombinant RTK ligand to confer resistance ([3]; G-361, PLX4720 - 2 uM, ligand 0.4 ng/ml): 0.98
- ability of recombinant RTK ligand to confer resistance ([3]; G-361, PLX4720 - 2 uM, ligand 1.6 ng/ml): 0.90
- ability of recombinant RTK ligand to confer resistance ([3]; G-361, PLX4720 - 2 uM, ligand 6.25 ng/ml): 0.94
- ability of recombinant RTK ligand to confer resistance ([3]; G-361, PLX4720 - 2 uM, ligand 25 ng/ml): 0.99
- ability of recombinant RTK ligand to confer resistance ([3]; G-361, PLX4720 - 2 uM, ligand 100 ng/ml): 0.93
- ability of recombinant RTK ligand to confer resistance ([3]; SK-MEL-5, PD184352 - 1 uM, ligand 0.4 ng/ml): 0.99
- ability of recombinant RTK ligand to confer resistance ([3]; SK-MEL-5, PD184352 - 1 uM, ligand 1.6 ng/ml): 1.04
- ability of recombinant RTK ligand to confer resistance ([3]; SK-MEL-5, PD184352 - 1 uM, ligand 6.25 ng/ml): 1.08
- ability of recombinant RTK ligand to confer resistance ([3]; SK-MEL-5, PD184352 - 1 uM, ligand 25 ng/ml): 1.11
- ability of recombinant RTK ligand to confer resistance ([3]; SK-MEL-5, PD184352 - 1 uM, ligand 100 ng/ml): 1.01
- ability of recombinant RTK ligand to confer resistance ([3]; SK-MEL-5, PLX4720 - 2 uM, ligand 0.4 ng/ml): 1.08
- ability of recombinant RTK ligand to confer resistance ([3]; SK-MEL-5, PLX4720 - 2 uM, ligand 1.6 ng/ml): 1.15
- ability of recombinant RTK ligand to confer resistance ([3]; SK-MEL-5, PLX4720 - 2 uM, ligand 6.25 ng/ml): 1.19
- ability of recombinant RTK ligand to confer resistance ([3]; SK-MEL-5, PLX4720 - 2 uM, ligand 25 ng/ml): 1.22
- ability of recombinant RTK ligand to confer resistance ([3]; SK-MEL-5, PLX4720 - 2 uM, ligand 100 ng/ml): 1.11
- ability of recombinant RTK ligand to confer resistance ([3]; SK-MEL-28, PD184352 - 1 uM, ligand 0.4 ng/ml): 1.03
- ability of recombinant RTK ligand to confer resistance ([3]; SK-MEL-28, PD184352 - 1 uM, ligand 1.6 ng/ml): 0.97
- ability of recombinant RTK ligand to confer resistance ([3]; SK-MEL-28, PD184352 - 1 uM, ligand 6.25 ng/ml): 0.93
- ability of recombinant RTK ligand to confer resistance ([3]; SK-MEL-28, PD184352 - 1 uM, ligand 25 ng/ml): 0.97
- ability of recombinant RTK ligand to confer resistance ([3]; SK-MEL-28, PD184352 - 1 uM, ligand 100 ng/ml): 1.05
- ability of recombinant RTK ligand to confer resistance ([3]; SK-MEL-28, PLX4720 - 2 uM, ligand 0.4 ng/ml): 1.00
- ability of recombinant RTK ligand to confer resistance ([3]; SK-MEL-28, PLX4720 - 2 uM, ligand 1.6 ng/ml): 1.01
- ability of recombinant RTK ligand to confer resistance ([3]; SK-MEL-28, PLX4720 - 2 uM, ligand 6.25 ng/ml): 0.97
- ability of recombinant RTK ligand to confer resistance ([3]; SK-MEL-28, PLX4720 - 2 uM, ligand 25 ng/ml): 0.94
- ability of recombinant RTK ligand to confer resistance ([3]; SK-MEL-28, PLX4720 - 2 uM, ligand 100 ng/ml): 1.03
- re-activation of pERK/pAKT (pERK/pAKT): reactivate only ERK

Compound: FGF-1: RTK ligand (FGFR), cytokine tested
- re-activation of pERK/pAKT (pERK/pAKT): reactivate only ERK

Compound: IGF-1: RTK ligand of IGF-1R
- ability of RTK ligand to confer primary resistance ([3]; six V600E BRAF melanoma cell lines, BRAFi (PLX4720) or MEKi (PD184352)): not shown to induce primary resistance
- re-activation of pERK/pAKT (pERK/pAKT): only reactivate AKT
